Laboratory results from BindingDB's records for patent US20230339890 (Kineta, 2023).

Target: T1, Lanosterol 14-alpha demethylase (Homo sapiens, UniProt Q16850)
T1 sequence (Q16850 whole entry): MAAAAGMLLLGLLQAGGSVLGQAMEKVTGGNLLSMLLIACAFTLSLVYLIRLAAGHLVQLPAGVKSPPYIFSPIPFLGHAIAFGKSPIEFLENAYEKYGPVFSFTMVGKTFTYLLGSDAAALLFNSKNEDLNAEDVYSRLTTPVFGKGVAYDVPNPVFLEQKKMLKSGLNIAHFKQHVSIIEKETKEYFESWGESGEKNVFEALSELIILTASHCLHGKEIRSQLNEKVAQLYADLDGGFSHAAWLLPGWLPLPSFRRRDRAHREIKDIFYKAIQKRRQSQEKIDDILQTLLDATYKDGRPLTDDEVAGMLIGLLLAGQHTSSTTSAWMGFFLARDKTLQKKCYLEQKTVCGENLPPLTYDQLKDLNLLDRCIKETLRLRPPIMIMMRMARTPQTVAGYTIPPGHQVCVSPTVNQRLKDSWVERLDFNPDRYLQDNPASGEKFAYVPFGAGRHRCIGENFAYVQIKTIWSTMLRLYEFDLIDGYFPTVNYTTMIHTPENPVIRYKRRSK
Experiment: Inhibition of CYP51A1
Excerpt: Method: Recombinant human CYP51A1 (lanosterol-14a-demethylase) enzyme was coexpressed with CYP reductase in bacterial membranes and the fluorescent substrate BOMCC (a nonnatural substrate that causes increases in fluorescence upon CYP51A1-dependent demethylation) was used to obtain 8-point dose concentration-response curves for each compound.

CCC(=O)N(CCc1ccc(C(F)(F)F)nc1)C[C@@H](O)c1cccnc1 [US20230339890, Compound 30]
IC50: > 1000 nM

CCC(=O)N(C[C@@H](O)c1cccnc1)C1CCc2cc(Cl)c(Cl)cc2C1 (some centres undefined) [US20230339890, Compound 70]
IC50: < 100 nM

CC(C)(C)OC(=O)NCCCCCN(C[C@@H](O)c1cccnc1)C(=O)Cc1ccc(C#N)c(Cl)c1 [US20230339890, Compound 142]
IC50: < 100 nM

CC(C)(C)OC(=O)NCCCCN(C[C@@H](O)c1cccnc1)C(=O)Cc1ccc(C(F)(F)F)nc1 [US20230339890, Compound 144]
IC50: < 100 nM
